Results reported in paper PMC12036814 (Angewandte Chemie (International Ed. in English), 2025).
Where two headings read alike, the source gives them in different places.

Legend:
Assay in all cases: Thermal protein profiling (TPP) in intact HEK293 cells
Format in all cases: cell-based
Conditions in all cases: 1 h
ADAL = molecular target: T1, ADAL (Homo sapiens, UniProt Q6DHV7)
T1 construct: endogenous in cells; host or cells: HEK293
T1 sequence (Q6DHV7 1-355): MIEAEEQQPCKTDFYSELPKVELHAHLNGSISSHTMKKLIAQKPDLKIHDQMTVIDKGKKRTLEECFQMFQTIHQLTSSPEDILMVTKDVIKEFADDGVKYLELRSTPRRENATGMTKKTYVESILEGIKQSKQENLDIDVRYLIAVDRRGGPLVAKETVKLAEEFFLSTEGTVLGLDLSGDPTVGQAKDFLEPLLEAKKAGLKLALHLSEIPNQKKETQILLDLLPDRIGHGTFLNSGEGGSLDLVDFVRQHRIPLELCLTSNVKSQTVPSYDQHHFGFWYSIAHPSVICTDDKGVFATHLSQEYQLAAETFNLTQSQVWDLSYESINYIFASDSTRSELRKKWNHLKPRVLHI
Description: (§1) incubated in a thermoshaker (600 rpm, 16 h, 37 °C). The digest was stopped by adding 10 μL formic
(§2) acid (FA) and vortexing followed by centrifugation (12,000 ×g, 3 min, room temperature). 50 mg
(§3) SepPak C18 columns (Waters, Milford, USA, Cat# WAT054960) were equilibrated by gravity flow two
(§4) times with 1 mL acetonitrile and three times with 1 mL aqueous 0.1% trifluoroacetic acid (TFA) solution.
(§5) Subsequently, the samples were loaded by gravity flow, washed three times with 1 mL aqueous 0.1%
(§6) TFA solution and once with 0.5 mL aqueous 0.5% formic acid (F A) solution. Elution of peptides into
(§7) new 2.0 mL Protein LoBind Eppendorf tubes was performed by two times addition of 250 μL elution
(§8) buffer (80% acetonitrile, 0.5% FA) by gravity flow followed by 250 μL elution buffer by vacuum flow
(§9) until all liquid was eluted from the column. The eluates were lyophilized. Before MS measurement the
(§10) (brief centrifugation after each step).
(§11) Thermal protein profiling (TPP)
(§12) The experiment was performed similarly to TPP-TR experiments described by Franken et al. with minor
(§13) modifications.5 HEK293 cells were grown in 8 T175 flasks to approx. 80-90% confluency. Per replicate
(§14) volume of 0.1 N HCl as vehicle control. Per condition two replicates were used, leading to a total of 8
(§15) T175 flasks. The cells were washed with PBS, detached with accutase, the two flask per replicate
(§16) condition combined and the cells pelletized (500 ×g, 3 min, r.t.). The medium was removed and each
(§17) pellet (Cipro #1, Cipro #2, Ctrl. #1, Ctrl #2) washed twice with cold PBS. Each pellet was resuspended
(§18) depending on the sample. The cell suspension of each sample was distributed into 10 PCR tubes
(§19) (100 µL per tube), resulting in 10 stripes á 4 tubes (2×2 conditions, 10 temperature points). The PCR
(§20) tubes were subjected to the temperature gradient using a PCR cycler.
(§21) limitations, two separate programs had to be run to cover the desired temperature range (see
(§22) Table S4). The PCR tubes were heat-treated according to the two programs for 3 min and directly snap
(§23) frozen in liquid nitrogen.
(§24) manufacturer instructions.

SMG7 = molecular target: T2, SMG7 (Homo sapiens, UniProt Q92540)
T2 construct: endogenous in cells; host or cells: HEK293
T2 sequence (Q92540 1-1137): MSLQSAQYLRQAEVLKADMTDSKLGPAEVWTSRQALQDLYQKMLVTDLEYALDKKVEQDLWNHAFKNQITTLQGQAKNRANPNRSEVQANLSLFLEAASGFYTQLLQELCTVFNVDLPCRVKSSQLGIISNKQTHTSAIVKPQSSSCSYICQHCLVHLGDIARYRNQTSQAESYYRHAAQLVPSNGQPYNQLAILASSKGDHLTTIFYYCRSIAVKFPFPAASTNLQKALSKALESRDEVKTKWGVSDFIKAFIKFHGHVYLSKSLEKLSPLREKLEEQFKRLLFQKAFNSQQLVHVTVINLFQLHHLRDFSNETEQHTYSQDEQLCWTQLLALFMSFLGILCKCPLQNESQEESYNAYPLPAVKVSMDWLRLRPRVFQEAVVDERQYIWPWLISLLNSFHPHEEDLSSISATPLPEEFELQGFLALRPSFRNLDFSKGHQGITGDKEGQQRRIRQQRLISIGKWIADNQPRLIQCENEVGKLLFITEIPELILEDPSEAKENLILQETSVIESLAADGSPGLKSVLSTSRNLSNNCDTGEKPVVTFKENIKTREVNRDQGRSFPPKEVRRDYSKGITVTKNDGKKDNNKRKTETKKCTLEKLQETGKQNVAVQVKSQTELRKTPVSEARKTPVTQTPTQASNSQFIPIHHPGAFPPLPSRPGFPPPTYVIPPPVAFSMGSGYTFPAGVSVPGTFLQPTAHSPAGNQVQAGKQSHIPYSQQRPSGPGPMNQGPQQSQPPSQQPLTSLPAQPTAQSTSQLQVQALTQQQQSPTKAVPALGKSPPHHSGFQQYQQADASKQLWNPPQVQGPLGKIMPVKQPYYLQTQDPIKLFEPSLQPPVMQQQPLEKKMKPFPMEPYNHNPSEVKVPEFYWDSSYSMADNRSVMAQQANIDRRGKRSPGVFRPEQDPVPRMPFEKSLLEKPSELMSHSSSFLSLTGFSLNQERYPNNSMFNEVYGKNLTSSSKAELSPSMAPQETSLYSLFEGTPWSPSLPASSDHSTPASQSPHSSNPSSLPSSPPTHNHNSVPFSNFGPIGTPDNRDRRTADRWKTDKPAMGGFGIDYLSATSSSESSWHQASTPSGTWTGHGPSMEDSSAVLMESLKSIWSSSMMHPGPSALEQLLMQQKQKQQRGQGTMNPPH
Description: as §1, §2, §3, §4, §5, §6, §7, §8, §9, §10, §11, §12, §13, §14, §15, §16, §17, §18, §19, §20, §21, §22, §23, §24

ULK3 = molecular target: T3, ULK3 (Homo sapiens, UniProt Q6PHR2)
T3 construct: endogenous in cells; host or cells: HEK293
T3 sequence (Q6PHR2 1-472): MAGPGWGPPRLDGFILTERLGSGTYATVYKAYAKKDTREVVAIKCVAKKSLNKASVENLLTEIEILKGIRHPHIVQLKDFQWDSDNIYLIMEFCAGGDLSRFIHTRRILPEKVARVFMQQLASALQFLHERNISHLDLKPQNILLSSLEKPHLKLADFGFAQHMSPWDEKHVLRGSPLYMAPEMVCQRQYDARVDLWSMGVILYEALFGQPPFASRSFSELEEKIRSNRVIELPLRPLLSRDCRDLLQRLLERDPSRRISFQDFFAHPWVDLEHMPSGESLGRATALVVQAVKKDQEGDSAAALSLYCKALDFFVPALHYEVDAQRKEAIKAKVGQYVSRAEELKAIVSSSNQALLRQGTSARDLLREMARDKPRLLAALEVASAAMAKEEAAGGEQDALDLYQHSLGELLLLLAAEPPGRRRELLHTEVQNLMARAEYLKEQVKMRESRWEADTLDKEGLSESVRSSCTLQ
Description: as §1, §2, §3, §4, §5, §6, §7, §8, §9, §10, §11, §12, §13, §14, §15, §16, §17, §18, §19, §20, §21, §22, §23, §24

FAM171A2 = molecular target: T4, FAM171A2 (Homo sapiens, UniProt A8MVW0)
T4 construct: endogenous in cells; host or cells: HEK293
Description: as §1, §2, §3, §4, §5, §6, §7, §8, §9, §10, §11, §12, §13, §14, §15, §16, §17, §18, §19, §20, §21, §22, §23, §24

Question: What does the source list for `O=C(O)c1cn(C2CC2)c2cc(N3CCNCC3)c(F)cc2c1=O` [Ciprofloxacin]?
Answer: ΔTm at 70 µM (ADAL; read-out: ΔTm Rep. 1): 5.91 °C; ΔTm at 70 µM (ADAL; read-out: ΔTm Rep. 2): 6.21 °C; ΔTm at 70 µM (SMG7; read-out: ΔTm Rep. 1): 1.67 °C; ΔTm at 70 µM (SMG7; read-out: ΔTm Rep. 2): 3.28 °C; ΔTm at 70 µM (ULK3; read-out: ΔTm Rep. 1): 1.72 °C; ΔTm at 70 µM (ULK3; read-out: ΔTm Rep. 2): 4.39 °C; ΔTm at 70 µM (FAM171A2; read-out: ΔTm Rep. 1): 5.82 °C; ΔTm at 70 µM (FAM171A2; read-out: ΔTm Rep. 2): 3.92 °C
